Data from patent US5753658A, “Quinolonecarboxylic acid derivatives” (Senju Pharmaceutical Co., Ltd., priority 1993, dated 1998).
Values after ≈ are worked out from the molar mass of the structure shown.

Columns and labels:
S. aureus IFO 13276 = assay: Antibacterial test (minimum inhibitory concentration), method designated by Japan Society of Chemotherapy; format: cell-based, Staphylococcus aureus; conditions: for MIC: Staphylococcus aureus, IFO13276, S. aureus IFO 13276, Gram's stain +, 10^6 cells/ml
Experimental: (§1) Antibacterial test was carried out according to the method designated by Japan Society of Chemotherapy in Chemotherapy, 29 (1): 76 (1981), the content of which is herein incorporated by reference. Each of the compounds obtained in Examples 2, 4 and 7 is tested. As a control drug, 1-ethyl-6,8-difluoro-1,4-dihydro-4-oxo-7-(1-piperazinyl)-3-quinolinecarboxylic acid was used, which is represented by formula IV when R1 is hydrogen, R3 is ethyl, R4 and R5 are hydrogen, and Z is piperazinyl.
(§2) The results are shown in Table 1 in terms of minimum inhibitory concentration (MIC).

P. aeruginosa IFO 13275 = assay: as above; format: cell-based; conditions: Pseudomonas aeruginosa, IFO13275; P. aeruginosa IFO 13275, Gram's stain -, 10^6 cells/ml
Experimental: as §1, §2

SMILES: CCn1cc(C(=O)O)c(=O)c2cc(F)c(N3CCN(S(=O)(=O)c4ccc(F)cc4)CC3)c(F)c21 [Example 7, 1-Ethyl-6,8-difluoro-1,4-dihydro-4-oxo-7-[4-(4-fluorobenzenesulfonyl)-1-piperazinyl]-3-quinolinecarboxylic acid]
- MIC (S. aureus IFO 13276): 0.78 µg/mL (≈ 1.57 µM)
- MIC (P. aeruginosa IFO 13275): < 0.025 µg/mL

SMILES: CCn1cc(C(=O)O)c(=O)c2cc(F)c(N3CCN(S(=O)(=O)c4ccc(N)cc4)CC3)c(F)c21 [Example 2, 1-Ethyl-6,8-difluoro-1,4-dihydro-4-oxo-7-[4-(4-aminobenzenesulfonyl)-1-piperazinyl]-3-quinolinecarboxylic acid]
- MIC (S. aureus IFO 13276): 0.2 µg/mL (≈ 0.406 µM)
- antibacterial activity compared with the control drug (in words) (S. aureus IFO 13276; against S. aureus, versus control drug): more potent antibacterial activity than the control drug
- MIC (P. aeruginosa IFO 13275): < 0.025 µg/mL

SMILES: CCn1cc(C(=O)O)c(=O)c2cc(F)c(N3CCN(S(=O)(=O)c4ccc(C)cc4)CC3)c(F)c21 [Example 4, 1-Ethyl-6,8-difluoro-1,4-dihydro-4-oxo-7-[4-(4-methylbenzenesulfonyl)-1-piperazinyl]-3-quinolinecarboxylic acid]
- MIC (S. aureus IFO 13276): 0.78 µg/mL (≈ 1.59 µM)
- MIC (P. aeruginosa IFO 13275): < 0.025 µg/mL

SMILES: CCn1cc(C(=O)O)c(=O)c2cc(F)c(N3CCNCC3)c(F)c21 [Control drug, 1-ethyl-6,8-difluoro-1,4-dihydro-4-oxo-7-(1-piperazinyl)-3-quinolinecarboxylic acid, reference compound]
- MIC (S. aureus IFO 13276): 0.39 µg/mL (≈ 1.16 µM)
- MIC (P. aeruginosa IFO 13275): < 0.025 µg/mL
